Experimental data reported in ChEMBL document CHEMBL1140199, “Synthesis and antimicrobial activity of 2-alkenylchroman-4-ones, 2-alkenylthiochroman-4-ones and 2-alkenylquinol-4-ones” (2008).
Converted amounts (≈) assume the structure as drawn. The source made the active and inactive calls. No cut-off for these calls is given here.

How the values were obtained:
Assay type in all cases: functional
Staphylococcus aureus = assay: Antimicrobial activity against Staphylococcus aureus ATCC 6538; details: for MIC: Staphylococcus aureus, ATCC 6538
Escherichia coli = assay: Antimicrobial activity against Escherichia coli ATCC 11229
Candida maltosa = assay: Antimicrobial activity against Candida maltosa
Bacillus subtilis = assay: Antimicrobial activity against Bacillus subtilis ATCC 6051

Q: Which results are given for `C=C(C)C1CC(=O)c2cc(Br)ccc2O1` (stereo not given)?
A: inhibition zone (IZ) (Staphylococcus aureus): 16 mm; inhibition zone (IZ) (Escherichia coli): 8 mm; Activity (Candida maltosa): inactive; Activity (Bacillus subtilis): inactive

Q: `CC1(C)S[C@@H]2[C@H](NC(=O)[C@H](N)c3ccccc3)C(=O)N2[C@H]1C(=O)O` [AMPICILLIN] was tested. Which “inhibition zone (IZ)” value (Staphylococcus aureus) did it give?
A: 27 mm

Q: What about the “inhibition zone (IZ)” value (Escherichia coli) of the same molecule?
A: 19 mm

Q: And the “inhibition zone (IZ)” value (Bacillus subtilis)?
A: 25 mm

Q: Which “inhibition zone (IZ)” value (Staphylococcus aureus) does the source give for `C=C(C)C1CC(=O)c2cc(Cl)ccc2O1` (stereo not given) here?
A: 17 mm

Q: What about the “inhibition zone (IZ)” value (Escherichia coli) of the same molecule?
A: 9 mm

Q: And the Activity (Candida maltosa)?
A: inactive

Q: And the Activity (Bacillus subtilis)?
A: inactive

Q: `C=CC1CC(=O)c2cc(Br)ccc2O1` (stereo not given) was tested. Which MIC (Staphylococcus aureus) did it give?
A: 5.62 µg/mL (≈ 22.2 µM)

Q: How did the Activity (Staphylococcus aureus) turn out when `C=CC1CC(=O)c2cc(F)ccc2N1C(=O)OC` (stereo not given) was run?
A: inactive

Q: And the Activity (Escherichia coli)?
A: inactive

Q: What about the Activity (Candida maltosa) of the same molecule?
A: inactive

Q: What about the Activity (Bacillus subtilis) of the same molecule?
A: inactive

Q: Which Activity (Staphylococcus aureus) does the source give for `C=CC1CC(=O)c2ccccc2S1` (stereo not given) here?
A: inactive

Q: And the Activity (Escherichia coli)?
A: inactive

Q: What about the “inhibition zone (IZ)” value (Candida maltosa) of the same molecule?
A: 6 mm

Q: And the Activity (Bacillus subtilis)?
A: inactive

Q: NYSTATIN was tested. Which inhibition zone (IZ) (Candida maltosa) did it give?
A: 28 mm

Q: Which Activity (Staphylococcus aureus) does the source give for `C=CC1CC(=O)c2c(Cl)cc(Cl)cc2N1C(=O)OC` (stereo not given) here?
A: inactive

Q: What about the Activity (Escherichia coli) of the same molecule?
A: inactive

Q: What about the Activity (Candida maltosa) of the same molecule?
A: inactive

Q: What about the Activity (Bacillus subtilis) of the same molecule?
A: inactive

Q: Which results are given for `C/C=C/C1CC(=O)c2cc(Br)ccc2O1` (stereo not given)?
A: Activity (Staphylococcus aureus): inactive; inhibition zone (IZ) (Escherichia coli): 9 mm; Activity (Candida maltosa): inactive; Activity (Bacillus subtilis): inactive

Q: Which results are given for `C=CC1CC(=O)c2cc(Br)ccc2N1C(=O)OC` (stereo not given)?
A: Activity (Staphylococcus aureus): inactive; Activity (Escherichia coli): inactive; Activity (Candida maltosa): inactive; Activity (Bacillus subtilis): inactive

Q: For `C=C(C)C1CC(=O)c2ccccc2S1` (stereo not given), which Activity (Staphylococcus aureus) is on record?
A: inactive

Q: And the Activity (Escherichia coli)?
A: inactive

Q: What about the Activity (Candida maltosa) of the same molecule?
A: inactive

Q: What about the Activity (Bacillus subtilis) of the same molecule?
A: inactive

Q: Which Activity (Staphylococcus aureus) does the source give for `C=CC1CC(=O)c2cc(Cl)ccc2N1C(=O)OC` (stereo not given) here?
A: inactive

Q: What about the Activity (Escherichia coli) of the same molecule?
A: inactive

Q: And the Activity (Candida maltosa)?
A: inactive

Q: And the Activity (Bacillus subtilis)?
A: inactive

Q: With `C=CC1CC(=O)c2ccccc2O1` (stereo not given) as the molecule, how does the Activity (Staphylococcus aureus) read?
A: inactive

Q: What about the Activity (Escherichia coli) of the same molecule?
A: inactive

Q: What about the Activity (Candida maltosa) of the same molecule?
A: inactive

Q: And the Activity (Bacillus subtilis)?
A: inactive

Q: Which results are given for `C=CC1CC(=O)c2cc(Cl)ccc2O1` (stereo not given)?
A: inhibition zone (IZ) (Staphylococcus aureus): 40 mm; MIC (Staphylococcus aureus): 7.3 µg/mL (≈ 35 µM); inhibition zone (IZ) (Escherichia coli): 17 mm; MIC (Escherichia coli; Escherichia coli, ATCC 11229): 4.17 µg/mL (≈ 20 µM); inhibition zone (IZ) (Candida maltosa): 40 mm; inhibition zone (IZ) (Bacillus subtilis): 29 mm; MIC (Bacillus subtilis; Bacillus subtilis, ATCC 6051): 4.17 µg/mL (≈ 20 µM)

Q: What does the source list for `C=CC1CC(=O)c2cc(Cl)ccc2S1` (stereo not given)?
A: Activity (Staphylococcus aureus): inactive; Activity (Escherichia coli): inactive; inhibition zone (IZ) (Candida maltosa): 6 mm; Activity (Bacillus subtilis): inactive

Q: What does the source list for `C/C=C(\C)C1CC(=O)c2cc(Br)ccc2O1` (stereo not given)?
A: Activity (Staphylococcus aureus): inactive; Activity (Escherichia coli): inactive; Activity (Candida maltosa): inactive; Activity (Bacillus subtilis): inactive

Q: Which results are given for `C/C=C/C1CC(=O)c2cc(Cl)ccc2O1` (stereo not given)?
A: Activity (Staphylococcus aureus): inactive; inhibition zone (IZ) (Escherichia coli): 10 mm; Activity (Candida maltosa): inactive; Activity (Bacillus subtilis): inactive

Q: With `C=C(C)C1CC(=O)c2ccccc2O1` (stereo not given) as the molecule, how does the Activity (Staphylococcus aureus) read?
A: inactive

Q: And the “inhibition zone (IZ)” value (Escherichia coli)?
A: 10 mm

Q: What about the Activity (Candida maltosa) of the same molecule?
A: inactive

Q: And the Activity (Bacillus subtilis)?
A: inactive

Q: Which results are given for `C=C(C)C1CC(=O)c2cc(Cl)ccc2S1` (stereo not given)?
A: Activity (Staphylococcus aureus): inactive; Activity (Escherichia coli): inactive; Activity (Candida maltosa): inactive; Activity (Bacillus subtilis): inactive

Q: Which results are given for `C=C(C)C1CC(=O)c2cc(Cl)ccc2N1C(=O)OC` (stereo not given)?
A: Activity (Staphylococcus aureus): inactive; Activity (Escherichia coli): inactive; Activity (Candida maltosa): inactive; Activity (Bacillus subtilis): inactive

Q: With `C/C=C(\C)C1CC(=O)c2cc(Cl)ccc2O1` (stereo not given) as the molecule, how does the Activity (Staphylococcus aureus) read?
A: inactive

Q: What about the Activity (Escherichia coli) of the same molecule?
A: inactive

Q: What about the Activity (Candida maltosa) of the same molecule?
A: inactive

Q: What about the Activity (Bacillus subtilis) of the same molecule?
A: inactive
